Data on 2 molecules can be found in patent publication US20240398756A1, “DRUG FOR REDUCING BLOOD GLUCOSE AND/OR TREATING DIABETIC COMPLICATIONS” (SICHUAN UNIVERSITY, priority 2022, published 2024).

The structures appear in SMILES notation. Counter-ions that a name gives are not always drawn.

Data set [1] concerns C57BL/KsJ db/db mice. Description: Serum CRE, BUN and UACR in diabetic nephropathy mice. The class given is in vivo. Conditions: 30 mg/kg i.p. once a day, four weeks. As for the experimental part: (§1) 10-week male C57BL/KsJ db/db mice, SPF grade, provided by Jiangsu GemPharmatech Co. Ltd., Changzhou Branch, certificate number: 202012449, with an initial weight of 44±2 g, underwent adaptive feeding for two weeks. […] There were 6 littermate w/w male mice of the same week age as the solvent control group. Different doses were given by intraperitoneal injection at 10 mL/kg volume once a day for four weeks, respectively, and equal volumes of normal saline were given by intraperitoneal injection in the control and model groups. During the treatment cycle, the blood glucose changes in mice were detected every three days, and the percentages of blood glucose reduced by the drugs were calculated based on the difference between the blood glucose of the model and the normal control group, so as to clarify the hypoglycemic effect of the drugs.

The subject of data set [2] is C57BL/KsJ db/db mice. The data set is described as follows: TNF-α, IL-1β and IL-6 contents in sciatic nerve. The class given is in vivo. The conditions noted are these: 50 mg/kg i.p. three times a week, 8 weeks. As for the experimental part: (§2) Eighteen 16-week male C57BL/KsJ db/db mice, SPF grade, provided by Jiangsu GemPharmatech Co. Ltd., Changzhou Branch. […] The littermate w/w male mice of the same age were selected as the control group. The heat pain threshold was measured in all mice before administration to determine DPN symptoms. […] The control group and the db/db model group were intraperitoneally injected with an equal volume of saline. During the treatment period, blood glucose changes in mice were monitored every three days to determine the hypoglycemic effect of the drug. At the end of the 8th week, the heat pain threshold was detected. Mice were sacrificed to detect related factors through detection kits.
(§3) At the end of the experiment, mice were sacrificed and sciatic nerve cells were isolated. In order to determine the contents of MDA, GSH, SOD, TNF-α, IL-6 and IL-1β in the sciatic nerve, the sciatic nerve was first cut into fragments (100 mg: 1800 μL) with small scissors in normal saline and homogenized with Beed Ruptor 24 Elite. Then, the homogenate was centrifuged at 4° C. and 3500 rpm for 15 min, and the supernatant was collected for use. Then, commercial kits were used to determine the activity of SOD and the contents of MDA, GSH, TNF-α, IL-6 and IL-1β in sciatic nerve homogenate.

Data set [3] concerns C57BL/KsJ db/db mice. The data set is described as follows: SOD activity and MDA, GSH contents in sciatic nerve. The class given is in vivo. Conditions: 50 mg/kg i.p. three times a week, 8 weeks. As for the experimental part: as §2, §3
In data set [4] the test system is C57BL/KsJ db/db mice. Description: Serum insulin content and insulin resistance index in db/db diabetic mice. The conditions noted are these: gavage, end of 1 month treatment, nanoparticles 100 mg/kg every 3 days, LA monomer 100 mg/kg and metformin 120 mg/kg daily. The data set is classed as in vivo. The source says:
8-week male C57BL/KsJ db/db mice, SPF grade, provided by Jiangsu GemPharmatech Co. Ltd., Changzhou Branch, certificate number: 202012449, with an initial weight of 44±2 g, underwent adaptive feeding for one week. A total of 24 C57BL/KsJ db/db mice were randomly divided into 4 groups according to body weight and blood glucose, with 6 mice in each group. […] There were 6 littermate w/w male mice of the same week age as the solvent control group. […] After administration of a single dose, the blood glucose changes of mice were continuously monitored for 3 days. During the 1-month treatment cycle, the blood glucose changes of the mice were detected every 3 days. […] The mice were killed by enucleation and bloodletting, serum samples were collected by centrifugation at room temperature, the serum insulin content was detected by mouse insulin ELISA detection kit, and the insulin resistance index was calculated, and the percentage of the drug to reduce the serum insulin content and insulin resistance index was calculated based on the difference between the model and the normal control group. The results of the quantitative experiment were expressed as mean±variance (x±s). SPSS version19.0 Statistical Software (Chicago, IL, USA) was used to compare the differences between groups using one-way analysis of variance. When the difference was significant (P<0.05), the Turkey post hoc method was used for pairwise comparison, and when P<0.05, the difference was considered statistically significant.

For data set [5] the following is noted: intravenous injection, human body; cited from earlier work.
Data set [6] has as its system C57BL/KsJ db/db mice. Description: Blood glucose in db/db diabetic peripheral neuropathy mice (Embodiment 8). The data set is classed as in vivo. Conditions: 50 mg/kg i.p. three times a week, 8 weeks. Here is the method: as §2
Data set [7] relates to C57BL/KsJ db/db mice. The data set is described as follows: Na+-K+-ATPase activity in red blood cells and sciatic nerve. The data set is classed as in vivo. Conditions: 50 mg/kg i.p. three times a week, 8 weeks. Here is the method: as §2
After 8 weeks treatment, all mice were sacrificed and the sciatic nerve was isolated. In order to determine the activity of Na^+—K^+-ATPase in red blood cells and sciatic nerve of mice, 10 μL whole blood was collected and added into 240 μL distilled water for mixing, and the activity of Na^+—K^+-ATPase was determined immediately. The sciatic nerve tissue of mice was collected. First, the sciatic nerve was cut into fragments (100 mg: 1800 μL) with small scissors in normal saline and homogenized with Beed Ruptor 24 Elite. Then, the homogenate was centrifuged at 4° C. and 3500 rpm for 15 min, and the supernatant was collected for use.

The test system of data set [8] is C57BL/KsJ db/db mice. The data set is described as follows: Kidney tissue pathology (HE, PAS, TEM) in diabetic nephropathy mice. The data set is classed as in vivo. The conditions noted are these: 30 mg/kg i.p. once a day, four weeks. Here is the method:
as §1

Data set [9] concerns C57BL/KsJ db/db mice. Description: Blood glucose in db/db type 2 diabetes mice (Embodiment 4). The class given is in vivo. Conditions: gavage; for reduction of blood glucose contents: 1 month, nanoparticles 100 mg/kg once every 3 days, LA monomer 100 mg/kg and metformin 120 mg/kg once a day, relative to model-normal control difference. Here is the method: A total of 24 C57BL/KsJ db/db mice were randomly divided into 4 groups according to body weight and blood glucose, with 6 mice in each group. […] There were 6 littermate w/w male mice of the same week age as the solvent control group. […] After administration of a single dose, the blood glucose changes of mice were continuously monitored for 3 days. During the 1-month treatment cycle, the blood glucose changes of the mice were detected every 3 days. On the 30th day, 2 h after the end of administration, the blood glucose of mice was measured, and the percentage of blood glucose reduced by the drug was calculated based on the difference between the blood glucose of the model and the normal control group. The mice were killed by enucleation and bloodletting, serum samples were collected by centrifugation at room temperature, the serum insulin content was detected by mouse insulin ELISA detection kit, and the insulin resistance index was calculated, and the percentage of the drug to reduce the serum insulin content and insulin resistance index was calculated based on the difference between the model and the normal control group.
The results of the quantitative experiment were expressed as mean±variance (x±s). SPSS version19.0 Statistical Software (Chicago, IL, USA) was used to compare the differences between groups using one-way analysis of variance. When the difference was significant (P<0.05), the Turkey post hoc method was used for pairwise comparison, and when P<0.05, the difference was considered statistically significant.

Data set [10] has as its system C57BL/KsJ db/db mice. Description: Transcript levels of TNF-α, IL-1β and IL-6 genes in kidney tissues. The data set is classed as in vivo. The conditions noted are these: 30 mg/kg i.p. once a day, 4 weeks. As for the experimental part: as §1
The subject of data set [11] is C57BL/KsJ db/db mice. Description: Blood glucose in db/db diabetic nephropathy mice (Embodiment 6). The data set is classed as in vivo. Conditions: 30 mg/kg intraperitoneal once a day, four weeks. As for the experimental part: as §1, with “drugs. […] The results of the quantitative experiment were expressed as mean±variance (x±s). SPSS version19.0 Statistical Software (Chicago, IL, USA) was used to compare the differences between groups using one-way analysis of variance. When the difference was significant (P<0.05), the Turkey post hoc method was used for pairwise comparison, and when P<0.05, the difference was considered statistically significant.” for “drugs.”

The subject of data set [12] is C57BL/KsJ db/db mice. Description: MDA content and SOD activity in kidney tissues. Conditions: 30 mg/kg i.p. once a day, 4 weeks. The class given is in vivo. Here is the method:
as §1

With `O=C(O)CCCCC1CCSS1` (centres unmarked) [LA monomer, lipoic acid], in the data set on C57BL/KsJ db/db mice [1], the “decrease of BUN content vs db/db model group” value came out at 25.45%, the “decrease of UACR level vs db/db model group” value is reported as 24.75% and the “decrease of serum CRE vs db/db model group” value is reported as 21.05%. Besides, in the data set with C57BL/KsJ db/db mice [2], the “decrease of IL-1β level in sciatic nerve tissue vs db/db mice” value amounted to 27.46%, the “decrease of IL-6 level in sciatic nerve tissue vs db/db mice” value is listed as 38.42% and the “decrease of TNF-α level in sciatic nerve tissue vs db/db mice” value was found to be 34.42%. In the data set on C57BL/KsJ db/db mice [3], the “decrease of MDA content in sciatic nerve” value was 30.79%, the “increase of GSH content in sciatic nerve” value came out at 10.79 and the “increase of SOD activity in sciatic nerve” value worked out at 15.76%. Moreover, the “decrease of serum insulin content” value in the data set on C57BL/KsJ db/db mice [4] is recorded as “no significant difference”. In [5], the “fraction passing through the glomerulus into the renal tubules and excreted in the urine” value is on record as 80-90%. Also, in the data set with C57BL/KsJ db/db mice [6], the “hypoglycemic effect (in words)” value is listed as “no hypoglycemic effect”. In the data set on C57BL/KsJ db/db mice [7], the “increase of Na+-K+-ATPase activity in sciatic nerve vs db/db mice” value was found to be 120% and the “increase of Na+-K+-ATPase activity of red blood cells vs db/db mice” value stood at 137%. Moreover, in the data set on C57BL/KsJ db/db mice [8], the “decrease of basement membrane thickness vs db/db model group” value was determined as 6.57%, the “increase of number of foot processes vs db/db model group” value worked out at 10.14% and the “shrinkage of glomeruli vs db/db model group” value worked out at 25.50%. In the data set with C57BL/KsJ db/db mice [9], the “reduction of blood glucose contents” value is listed as “no hypoglycemic effect”. The “blood glucose levels versus model group after a single dose” value with C57BL/KsJ db/db mice [9] (single dose 100 mg/kg, monitored 3 days) is on record as “no significant difference”. Besides, in the data set with C57BL/KsJ db/db mice [10], the “reduction of IL-1β transcript level in kidney” value was determined as 18.18%, the “reduction of IL-6 transcript level in kidney” value is 23.33% and the “reduction of TNF-α transcript level in kidney” value was determined as 22.5%. Further, the “reduction of blood glucose content” value in the data set with C57BL/KsJ db/db mice [11] is given as “no hypoglycemic effect”. In the data set on C57BL/KsJ db/db mice [12], the “increase of SOD activity in kidney tissues” value amounted to 55% and the “reduction of MDA content in kidney tissues” value was 9.8%.

Consider `CN(C)C(=N)N=C(N)N` [metformin, metformin hydrochloride], for which, in the data set on C57BL/KsJ db/db mice [4], the “decrease of insulin resistance index” value is reported as 53.68% and the “decrease of serum insulin content” value stood at 34.69%. In the data set on C57BL/KsJ db/db mice [9], the “reduction of blood glucose contents” value came to 50.28%. Also, in the data set on C57BL/KsJ db/db mice [9] (single dose, nanoparticles 100 mg/kg, metformin 120 mg/kg), the “duration of hypoglycemic effect after a single dose” value is recorded as not above 24 h.
